According to patent publication US12336982B2 (RODEO THERAPEUTICS CORPORATION, priority 2018, dated 2025):

These compounds were tested against T1, recombinant 15-PGDH (Homo sapiens, UniProt P15428). Conditions: recombinant human 15-PGDH, in vitro; read-out: PDGH Assay-IC50.
T1 sequence (P15428 1-266): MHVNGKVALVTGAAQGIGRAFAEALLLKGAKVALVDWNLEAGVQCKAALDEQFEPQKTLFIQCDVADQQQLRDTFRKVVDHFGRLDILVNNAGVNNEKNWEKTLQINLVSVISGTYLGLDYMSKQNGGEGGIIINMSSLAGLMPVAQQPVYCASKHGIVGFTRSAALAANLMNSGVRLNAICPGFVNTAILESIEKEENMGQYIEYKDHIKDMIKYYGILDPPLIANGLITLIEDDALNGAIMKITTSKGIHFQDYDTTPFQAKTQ
Format: biochemical
Excerpt: The Recombinant 15-PGDH is human unless otherwise specified.

Row | SMILES | IC50
1 | COCCC[S+]([O-])c1sc2nc(-c3cnn(C)c3)cc(C3CC3)c2c1N (stereo not drawn) [Example 278] | < 2.5 nM
2 | COCC[S+]([O-])c1sc2nc(-c3cncnc3)cc(-c3ccccc3)c2c1N (stereo not drawn) [Example 72] | < 2.5 nM
3 | CC(C)(C)[S+]([O-])c1sc2nc(-c3cnc(NCCO)nc3)cc(C3CCC3)c2c1N (stereo not drawn) [Example 353] | 2.5 to 10 nM
4 | Nc1c([S+]([O-])C2CCC2)sc2nc(-c3cnc(NCCO)nc3)cc(-c3ccccc3)c12 (stereo not drawn) [Example 44] | < 2.5 nM
5 | CNc1ncc(-c2cc(-c3ccnn3C)c3c(N)c([S@+]([O-])CCOC)sc3n2)cn1 [Example 331] | < 2.5 nM
6 | COC(=O)Nc1ncc(-c2cc(-c3ccccn3)c3c(N)c([S+]([O-])C4CCC4)sc3n2)cn1 (stereo not drawn) [Example 113] | 2.5 to 10 nM
7 | Cn1cc(-c2cc(-c3cccnc3)c3c(N)c([S+]([O-])C4CCC4)sc3n2)ccc1=O (stereo not drawn) [Example 89] | < 2.5 nM
8 | COCCC[S@@+]([O-])c1sc2nc(-c3cnc(N)nc3)cc(C(F)(F)F)c2c1N [Example 203] | < 2.5 nM
9 | COCC[S+]([O-])c1sc2nc(-c3cnc4c(cnn4C)c3)cc(-c3ccccc3)c2c1N (stereo not drawn) [Example 120] | < 2.5 nM
10 | COCCC[S+]([O-])c1sc2nc(-c3cnc(C)nc3)cc(C(F)(F)F)c2c1N (stereo not drawn) [Example 136] | 2.5 to 10 nM
11 | COCCC[S+]([O-])c1sc2nc(-c3cncnc3)cc(C3CCC3)c2c1N (stereo not drawn) [Example 254] | < 2.5 nM
12 | COCC[S@@+]([O-])c1sc2nc(-c3cnc4nn(C)cc4c3)nc(-c3ccccc3)c2c1N [Example 433] | < 2.5 nM
13 | COCC[S+]([O-])c1sc2nc(-c3cccnc3)cc(C(F)(F)F)c2c1N (stereo not drawn) [Example 57] | < 2.5 nM
14 | Nc1c([S@@+]([O-])C2CCC2)sc2nc(-c3cnc(NCCO)nc3)cc(-c3cccnc3)c12 [Example 104] | ≥ 10 nM
15 | COCCC[S+]([O-])c1sc2nc(-c3ccc(=O)n(C)c3)cc(-c3ccccc3)c2c1N (stereo not drawn) [Example 161] | < 2.5 nM
16 | Cc1ncc(-c2cc(C3=CCNN3C)c3c(N)c([S+]([O-])C4CCC4)sc3n2)cn1 (stereo not drawn) [Example 315] | 2.5 to 10 nM
17 | COCCC[S+]([O-])c1sc2nc(-c3cncnc3)cc(-c3ccnnc3)c2c1N (stereo not drawn) [Example 240] | 2.5 to 10 nM
18 | COCC[S+]([O-])c1sc2nc(-c3cnc4c(c3)CN(C)C4=O)cc(C3CCC3)c2c1N (stereo not drawn) [Example 385] | < 2.5 nM
19 | CN1CCN(c2ncc(-c3cc(-c4ccccc4)c4c(N)c([S@@+]([O-])C5CCC5)sc4n3)cn2)CC1 [Example 49] | ≥ 10 nM
20 | Cn1cc(-c2cc(-c3ccc(OCCO)cc3)c3c(N)c([S+]([O-])C4CCC4)sc3n2)cn1 (stereo not drawn) [Example 412] | < 2.5 nM
21 | COCC[S+]([O-])c1sc2nc(-c3cncnc3)cc(C)c2c1N (stereo not drawn) [Example 173] | < 2.5 nM
22 | Cn1cncc(-c2cc(C3CCC3)c3c(N)c([S+]([O-])C4CCC4)sc3n2)c1=O (stereo not drawn) [Example 409] | < 2.5 nM
23 | COCCC[S+]([O-])c1sc2nc(-c3cncnc3)cc(-c3ncccn3)c2c1N (stereo not drawn) [Example 91] | < 2.5 nM
24 | CN(CCO)c1ncc(-c2cc(-c3ccccc3)c3c(N)c([S+]([O-])C4CCC4)sc3n2)cn1 (stereo not drawn) [Example 144] | < 2.5 nM
25 | Nc1c([S@+]([O-])C2CCC2)sc2nc(-c3cnc(NCCO)nc3)cc(C(F)(F)F)c12 [Example 205] | < 2.5 nM

Row | SMILES | IC50
26 | Nc1c([S+]([O-])C2CCC2)sc2nc(-c3cnc(NCCO)nc3)cc(-c3ccc(F)cc3)c12 (stereo not drawn) [Example 158] | 2.5 to 10 nM
27 | COCC[S+]([O-])c1sc2nc(-c3ccnnc3)cc(-c3ccccc3)c2c1N (stereo not drawn) [Example 210] | < 2.5 nM
28 | COCCC[S+]([O-])c1sc2nc(-c3cncnc3)cc(-c3cnccn3)c2c1N (stereo not drawn) [Example 233] | < 2.5 nM
29 | Cn1cnc2ncc(-c3cc(C4CC4)c4c(N)c([S+]([O-])C5CCC5)sc4n3)cc21 (stereo not drawn) [Example 407] | < 2.5 nM
30 | COCC[S@@+]([O-])c1sc2nc(-c3cnc4ncn(C)c4c3)cc(-c3ccccc3)c2c1N [Example 362] | < 2.5 nM
31 | Cn1cc2cc(-c3cc(C4CC4)c4c(N)c([S+]([O-])C5CCC5)sc4n3)cnc2n1 (stereo not drawn) [Example 286] | < 2.5 nM
32 | Nc1c([S+]([O-])C2CCC2)sc2nc(-c3cnc(NCCO)nc3)cc(-c3ccccn3)c12 (stereo not drawn) [Example 92] | < 2.5 nM
33 | Nc1c([S+]([O-])C2CCC2)sc2nc(-c3cncnc3)cc(-c3ccc(C4COC4)cn3)c12 (stereo not drawn) [Example 128] | < 2.5 nM
34 | COCCC[S+]([O-])c1sc2nc(-c3cnc4c(c3)CNC4=O)cc(-c3ccccc3)c2c1N (stereo not drawn) [Example 303] | < 2.5 nM
35 | Nc1c([S@@+]([O-])C2CCC2)sc2nc(-c3cnc(NCCO)nc3)cc(-c3ccccc3)c12 [Example 52] | ≥ 10 nM
36 | Cn1nccc1-c1cc(-c2cncnc2)nc2sc([S+]([O-])C3CCC3)c(N)c12 (stereo not drawn) [Example 195] | < 2.5 nM
37 | COCC[S@+]([O-])c1sc2nc(-c3cnc4ncn(C)c4c3)cc(C3CCC3)c2c1N [Example 367] | ≥ 10 nM
38 | COCC[S+]([O-])c1sc2nc(-c3cncnc3)cc(C34CC(C3)C4)c2c1N (stereo not drawn) [Example 256] | < 2.5 nM
39 | COCCC[S@@+]([O-])c1sc2nc(-c3cnc(NCCO)nc3)cc(C(F)(F)F)c2c1N [Example 207] | < 2.5 nM
40 | Nc1c([S+]([O-])C2CCC2)sc2nc(-c3cncnc3)cc(-c3ccc(OCCO)cc3)c12 (stereo not drawn) [Example 183] | < 2.5 nM
41 | COCC[S+]([O-])c1sc2nc(-c3cncnc3)cc(C3CC3)c2c1N (stereo not drawn) [Example 109] | < 2.5 nM
42 | Cc1ncc(-c2cc(-c3cnn(C)c3)c3c(N)c([S+]([O-])C4CCC4)sc3n2)cn1 (stereo not drawn) [Example 281] | < 2.5 nM
43 | COCC[S@@+]([O-])c1sc2nc(-c3cncnc3)cc(C(F)(F)F)c2c1N [Example 198] | < 2.5 nM
44 | COCCC[S@@+]([O-])c1sc2nc(-c3cnc(N)nc3)cc(-c3ccc(F)cc3)c2c1N [Example 62] | < 2.5 nM
45 | COCC[S+]([O-])c1sc2nc(-c3cnc(NCCO)nc3)nc(-c3ccccc3)c2c1N (stereo not drawn) [Example 432] | 2.5 to 10 nM
46 | COCCC[S@+]([O-])c1sc2nc(-c3cncnc3)cc(-c3cnccn3)c2c1N [Example 235] | < 2.5 nM
47 | COCC[S+]([O-])c1sc2nc(-c3cnc(N4CCOCC4)nc3)cc(C(F)(F)F)c2c1N (stereo not drawn) [Example 424] | < 2.5 nM
48 | Nc1c([S+]([O-])C2CCC2)sc2nc(-c3cnc(NCCO)nc3)cc(-c3ccc(F)cn3)c12 (stereo not drawn) [Example 118] | 2.5 to 10 nM
49 | Nc1c([S+]([O-])C2CCC2)sc2nc(-c3cnc(NCCO)nc3)cc(C3COC3)c12 (stereo not drawn) [Example 222] | < 2.5 nM
50 | CNc1ncc(-c2cc(-c3ncccn3)c3c(N)c([S+]([O-])C4CCC4)sc3n2)cn1 (stereo not drawn) [Example 329] | < 2.5 nM

Row | SMILES | IC50
51 | COCCC[S+]([O-])c1sc2nc(-c3cccnc3)nc(C3CC3)c2c1N (stereo not drawn) [Example 191] | 2.5 to 10 nM
52 | Cn1ccc(-c2cc(-c3cnc(N)nc3)nc3sc([S+]([O-])C4CCC4)c(N)c23)n1 (stereo not drawn) [Example 338] | < 2.5 nM
53 | COCC[S@+]([O-])c1sc2nc(-c3cncnc3)cc(-c3ccccc3)c2c1N [Example 86] | ≥ 10 nM
54 | CS(=O)(=O)Nc1ncc(-c2cc(-c3ccccc3)c3c(N)c([S@+]([O-])C4CCC4)sc3n2)cn1 [Example 68] | < 2.5 nM
55 | COCC[S+]([O-])c1sc2nc(-c3cnc(NCCO)nc3)cc(C(F)(F)F)c2c1N (stereo not drawn) [Example 140] | 2.5 to 10 nM
56 | COCCC[S+]([O-])c1sc2nc(-c3cnc(N)nc3)cc(C(F)(F)F)c2c1N (stereo not drawn) [Example 133] | < 2.5 nM
57 | CNC(=O)c1ncc(-c2cc(-c3ccccc3)c3c(N)c([S+]([O-])C4CCC4)sc3n2)cn1 (stereo not drawn) [Example 53] | < 2.5 nM
58 | COCC[S+]([O-])c1sc2nc(-c3ccc(=O)[nH]c3)cc(-c3ccccc3)c2c1N (stereo not drawn) [Example 167] | < 2.5 nM
59 | Nc1c([S+]([O-])C2CCC2)sc2nc(-c3cnc(NCCO)nc3)cc(-c3cncc(F)c3)c12 (stereo not drawn) [Example 115] | < 2.5 nM
60 | COCC[S+]([O-])c1sc2nc(-c3cnc(N)nc3)nc(-c3ccccc3)c2c1N (stereo not drawn) [Example 430] | < 2.5 nM
61 | COCCC[S+]([O-])c1sc2nc(-c3cnc4nn(C)cc4c3)cc(-c3cccnc3)c2c1N (stereo not drawn) [Example 75] | < 2.5 nM
62 | COCC[S+]([O-])c1sc2nc(-c3cncnc3)cc(C(F)(F)F)c2c1N (stereo not drawn) [Example 130] | < 2.5 nM
63 | COCCC[S+]([O-])c1sc2nc(-c3ccc(NC(=O)OC)nc3)cc(-c3cccnc3)c2c1N (stereo not drawn) [Example 105] | 2.5 to 10 nM
64 | Cn1nc2cc(-c3cc(-c4ccnn4C)c4c(N)c([S+]([O-])C5CCC5)sc4n3)cnc2n1 (stereo not drawn) [Example 378] | < 2.5 nM
65 | COCC[S+]([O-])c1sc2nc(-c3cnc4c(cnn4C)c3)cc(C3CC3)c2c1N (stereo not drawn) [Example 226] | < 2.5 nM
66 | COCC[S+]([O-])c1sc2nc(-c3cncnc3)cc(-c3ccn(C)n3)c2c1N (stereo not drawn) [Example 337] | < 2.5 nM
67 | Nc1c([S@+]([O-])C2CCC2)sc2nc(-c3cncnc3)cc(-c3ccnn3C3CC3)c12 [Example 215] | < 2.5 nM
68 | COCC[S+]([O-])c1sc2nc(-c3cnc4ncn(C)c4c3)cc(-c3ccccc3)c2c1N (stereo not drawn) [Example 364] | < 2.5 nM
69 | Nc1c([S+]([O-])C2CCC2)sc2nc(-c3cnc(NCCO)nc3)cc(-c3ccc(Cl)cc3)c12 (stereo not drawn) [Example 159] | < 2.5 nM
70 | COCC[S+]([O-])c1sc2nc(-c3ccnnc3)cc(C3CCC3)c2c1N (stereo not drawn) [Example 347] | < 2.5 nM
71 | COCCC[S@@+]([O-])c1sc2nc(-c3cncnc3)cc(-c3ccnc(C)c3)c2c1N [Example 170] | < 2.5 nM
72 | Nc1c([S+]([O-])C2CCC2)sc2nc(-c3cncnc3)cc(-c3ccn(C4CC4)n3)c12 (stereo not drawn) [Example 414] | < 2.5 nM
73 | Cn1nccc1-c1cc(-c2cnc(NCCO)nc2)nc2sc([S+]([O-])C(C)(C)C)c(N)c12 (stereo not drawn) [Example 354] | < 2.5 nM
74 | COCC[S@@+]([O-])c1sc2nc(-c3cnc4ncn(C)c4c3)cc(C3CCC3)c2c1N [Example 366] | < 2.5 nM
75 | Nc1ncc(-c2cc(-c3ncccc3F)c3c(N)c([S+]([O-])C4CCC4)sc3n2)cn1 (stereo not drawn) [Example 77] | < 2.5 nM
